Entries after “also recorded” stand apart in the source; their conditions may differ.

Consider two molecules from US20130324469A1, “FIBRINOGEN AND KIDNEY DAMAGE” (THE BRIGHAM AND WOMEN'S HOSPITAL, INC., priority 2010, published 2013).

In data set [1] the test system is LLC-PK1 cells. Put plainly: BrdU uptake (cell proliferation) of LLC-PK1 cells after mineral-oil hypoxia. It is filed as cell-based, pig. The conditions noted are these: 6 μM; 48 h post hypoxia; serum free; vs random peptide. As to the method:
FIG. 4E is a bar graph showing cell proliferation measured by bromodeoxyuridine (5-bromo-2-deoxyuridine (BrdU) uptake, by LLC-PK1 cells, 48 h post onset of hypoxia at 450 nm wavelength. Absorbance obtained from untreated cells was taken as 100% (n=6 wells/group). * represents p<0.05 as determined by Student's t-test between the two groups.
In vitro experiments using proximal tubular epithelial cells (LLC-PK1) were also performed. The renal tubular epithelial cell line, LLC-PK1, established from pig renal cortex was obtained from ATCC (Manassas, Va.) and maintained in DMEM containing 10% FBS. Two thousand five hundred LLC-PK1 cells were plated in 96 well plate for 24 h in DMEM 10% fetal bovine serum (FBS) at which time they formed a 50% confluent monolayer in the well. They were pretreated with 6 μM of Bβ15-42 or random peptide for 6 h and were immersed in 100 μl of mineral oil on top of DMEM medium without any serum for 6 h. […] Bromodeoxyuridine (5-bromo-2-deoxyuridine (BrdU) was measured as an index of cell proliferation by incubating cells with BrdU for 2 h before harvesting and the absorbance was quantified using a spectrophotometer at 450 nm wavelength as per manufacturer's instructions (Millipore, Bellerica, Mass.). Absorbance obtained from untreated cells was taken as 100% (n=6 wells/group) and the experiment was repeated twice.

Data set [2] concerns acute lung injury in animal models. The conditions noted are these: suprapharmacological doses; cited from earlier work.
Data set [3] concerns renal I/R injury in C57BL/6 mice. Put plainly: 27 min bilateral renal ischemia/reperfusion (I/R) injury in mice, peptide given iv after reperfusion. It is filed as in vivo, mouse. The procedure:
FIG. 3 is a set of four bar graphs showing that Bβ15-42 peptide protects mice from renal ischemia/reperfusion (I/R) injury. Male C57Bl6 mice were subjected to 27 minutes bilateral renal ischemia/reperfusion injury or sham surgery and 3.6 mg/kg of Bβ15-42 peptide or random peptide was administered intravenously 1 min following reperfusion. […] Serum creatinine (SCr), blood urea nitrogen (BUN) as indicators of renal dysfunction and urinary levels of fibrinogen (Fg) and kidney injury molecule-1 (Kim-1) as indicators of kidney injury were measured at 24 and 48 h in all the groups. (n=5/group of sham, n=10/group at 24 hours and n=5/group at 48 hours).* represents p<0.05 as determined by one way ANOVA in comparison with sham mice.
Blood and urine analysis was performed as follows. At sacrifice, blood was collected from dorsal aorta in heparinized tubes. Serum creatinine (SCr) concentrations were measured using a Beckman Creatinine Analyzer II. Blood urea nitrogen (BUN) was measured spectrophotometrically at 340 nm using a commercially available kit (Thermo Scientific, Rockford, Ill.) as described before (Krishnamoorthy et al., Toxicol Sci. 2010; 118(1):298-306).
Urines were collected by placing animals in individual metabolic cages and one ml of RNAlater (Ambion, Austin, Tex.) was added to the tubes to preserve RNA. Urinary Kidney Injury Molecule-1 (Kim-1 in rats and KIM-1 in humans) was measured using previously established luminex-based assays (Vaidya et al., Nat Biotechnol. 2010; 28(5):478-485; Vaidya et al., Clinical and Translational Science. 2008; 1(3):200-208). Urinary Kim-1 in mice was measured using a luminex-based assay. Urinary N-acetyl-β-D-glucosaminidase (NAG) was measured spectrophotometrically according to the manufacturers' protocols (Roche diagnostics, Basel Switzerland). Urinary creatinine concentration was used to normalize biomarker measurements in order to account for the influence of urinary dilution on biomarker concentrations. Fibrinogen in mouse, rat and human urines was measured using a commercially available species-specific luminex assay based kit from Millipore (Billerica, Mass.).
Immunostaining, to evaluate the cellular expression profile of Fg whole protein and Fgα, Fgβ and Fgγ chains was performed as follows. Kidney tissues were perfused with cold PBS before harvesting and then fixed in formalin for 16 h and embedded in paraffin. The sections incubated overnight at 4° C. in rabbit monoclonal anti-Fibrinogen alpha (Epitomics, Burlingame, Calif.), rabbit polyclonal anti-Fibrinogen beta (ProteinTech Group, Chicago, Ill.), rabbit polyclonal anti-Fibrinogen gamma (ProteinTech Group, Chicago, Ill.), anti-rat fibrinogen (Nordic Immunological Laboratories, Tilburg, The Netherlands), anti-human fibrinogen (Sigma-Aldrich, St. Louis, Mo.) and rabbit monoclonal anti-Ki67 (Vector Laboratories, Burlingame, Calif.). The primary antibody was detected using goat anti-rabbit Cy3 labeled and donkey anti goat Cy3 labeled secondary antibodies (Jackson ImmunoResearch Laboratories, West Grove, Pa.). DAPI (Sigma Aldrich, St. Louis, Mo.) was used for nuclear staining. The tissue sections were mounted using ProLong Gold Antifade Reagent (Invitrogen, Carlsbad, Calif.). The images were captured at 100× for rats, 60× for mice and humans using NIKON Eclipse 90i fluorescence microscope.
Endotoxin free Bβ15-42 ([…]) and random peptide ([…]) were custom synthesized (Invitrogen, Carlsbad, Calif.) with 95% modification and N-terminal amine group addition and free acid modification. Bβ15-42 or random peptide (3.6 mg/kg) was administered intravenously (iv) 1 min after reperfusion following 27 min bilateral renal I/R injury in C57BL/6 mice (n=5 to 10/group). Forty male C57Bl6 wild type mice were anesthetized using pentobarbital sodium (30 mg/kg, ip) and subjected to 27 min of bilateral renal I/R surgery by the retroperitoneal approach. Sham surgery was performed with exposure of both kidneys but without induction of ischemia. […]

Data set [4] relates to patients with acute myocardial infarction. The conditions noted are these: phase IIa; patients whose endothelial barrier integrity had not been compromised; cited from earlier work.
For data set [5], the target named is T1, VE-Cadherin (Homo sapiens, UniProt P33151).
T1 sequence (P33151 48-784): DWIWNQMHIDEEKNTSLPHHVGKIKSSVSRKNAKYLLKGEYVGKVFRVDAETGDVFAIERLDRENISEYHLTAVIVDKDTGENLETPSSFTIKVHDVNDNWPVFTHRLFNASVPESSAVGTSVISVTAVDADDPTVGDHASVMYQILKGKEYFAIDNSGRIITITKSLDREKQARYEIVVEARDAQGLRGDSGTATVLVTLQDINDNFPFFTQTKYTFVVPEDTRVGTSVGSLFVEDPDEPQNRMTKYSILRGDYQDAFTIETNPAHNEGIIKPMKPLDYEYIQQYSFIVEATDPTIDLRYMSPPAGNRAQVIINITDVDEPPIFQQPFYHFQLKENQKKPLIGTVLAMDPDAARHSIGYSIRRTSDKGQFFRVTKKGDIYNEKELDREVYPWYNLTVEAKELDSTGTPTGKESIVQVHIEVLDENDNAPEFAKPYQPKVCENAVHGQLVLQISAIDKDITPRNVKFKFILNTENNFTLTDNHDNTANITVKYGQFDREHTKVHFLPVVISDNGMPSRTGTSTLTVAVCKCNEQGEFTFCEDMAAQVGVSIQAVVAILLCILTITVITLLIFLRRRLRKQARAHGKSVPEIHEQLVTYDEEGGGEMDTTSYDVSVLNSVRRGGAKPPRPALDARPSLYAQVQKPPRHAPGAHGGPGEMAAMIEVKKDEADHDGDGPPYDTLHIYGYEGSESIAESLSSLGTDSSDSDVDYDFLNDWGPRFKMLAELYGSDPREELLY
To be noted: disrupts interaction of Fg with VE-Cadherin on endothelial cells; cited from earlier work.

The subject of data set [6] is myocardial infarction in animal models. The conditions noted are these: suprapharmacological doses; cited from earlier work.
In data set [7] the test system is rats. Put plainly: Galactosamine-induced liver toxicity in rats (specificity of urinary fibrinogen). It is filed as in vivo, rat. To be noted: 1.1 g/kg ip, 24 h.
Setting [8] is: 3.6 mg/kg iv, 24 and 48 h, vs random peptide.
[9] abbreviates: 3.6 mg/kg iv, 24 h after I/R, vs random peptide.
[10] abbreviates: mean ± SEM, listed as galactosamine.

Take “GHRPLDKKREEAPSLRPAPPPISGGGYR (synthetically generated peptides) [Bβ15-42, naturally occurring 28 amino acid long product cleaved from fibrin fragments; Fgβ chain derived peptide, custom synthesized, endotoxin free]”: the “renal epithelial cell proliferation (BrdU uptake)” value in data set [1] is reported as “stimulating renal epithelial cell proliferation”. Also, the “protection from acute lung injury” value in data set [2] is listed as “protect”. Moreover, the “infarct size and vascular congestion” value in data set [3] (3.6 mg/kg iv 1 min after reperfusion, vs random peptide) was “significant reduction; also recorded: significantly smaller”. Also, in data set [3] (setting [8]), the “leukocyte infiltration (myeloperoxidase staining)” value is on record as “similar”; the “mRNA levels of inflammatory cytokines (IL-1β, IL-6, IL-10, TNFα, ICAM) and macrophage marker (CD68) in kidney” value is recorded as “no difference”. In data set [3] (setting [9]), the “proximal tubular damage in the outer stripe of outer medulla (H & E histopathology)” value was “significant decrease”, the “reduction in kidney dysfunction measured by blood urea nitrogen (BUN)” value is “Approximately 50%”, the “reduction in kidney dysfunction measured by serum creatinine (SCr)” value was “Approximately 50%” and the “reduction in kidney proximal tubular injury measured by urinary Fg” value is “Approximately 50%”. The “reduction in kidney proximal tubular injury measured by urinary kidney injury molecule-1” value in data set [3] (setting [9]) is on record as “Approximately 50%”. Further, in data set [3] (24 h, vs random peptide), the “number of TUNEL positive apoptotic cells in the renal medulla” value was “similar”. The “apoptosis (TUNEL) in the renal medulla” value in data set [3] (48 h, p<0.05 vs random peptide) is “significant decrease”. Further, the “proliferative (Ki67 positive) cells in the renal medulla” value in data set [3] (48 h, vs random peptide) is given as “significant number of cells appeared to be in a proliferative state”. Moreover, the acute tubular injury result in data set [3] (mice, bilateral renal I/R injury) was “substantially reduced”. Besides, in data set [4], the “clinical effect in acute myocardial infarction” value is “successful protective effects”. Also, in data set [5], the “interactions with VE-Cadherin” value was “low affinity”. Moreover, in data set [6], the “protection from myocardial infarction” value was “protect”.

As to `N[C@H]1C(O)O[C@H](CO)[C@H](O)[C@@H]1O` (stereo partly drawn) [Galactosamine, galactosamine], in data set [7], the histopathological score kidney came out at 0 and the histopathological score liver amounted to 2. Further, in data set [7] (listed as galactosamine), the histopathological score kidney result was “no signs of kidney structural or functional damage” and the histopathological score liver result is “extensive hepatocellular damage”. In data set [7] (mean ± SEM), this molecule gave an ALT of 422.8 ± 121.9 U/l, an AST of 246.0 ± 57.5 U/l, a BUN of 19.1 ± 1.1 mg/dL and a Scr of 0.5 ± 0.0 mg/dL. For the same molecule, in data set [7] (mean ± SEM), the “kidney Fgα gene expression (FC relative to control)” value is on record as 1.2 ± 0.1 FC, the “kidney Fgβ gene expression (FC relative to control)” value was determined as 1.0 ± 0.0 FC, the “kidney Fgγ gene expression (FC relative to control)” value is given as 0.9 ± 0.1 FC and the “kidney Kim-1 gene expression (FC relative to control)” value turned out to be 1.0 ± 0.1 FC. For the same molecule, the “urinary excretion of Fg” value in data set [7] (mean ± SEM) was 26.0 ± 26.0 ng/mg Cr. For the same molecule, in data set [7] (setting [10]), the ALT result is “significant increase”, the AST entry is “significant increase”, the “kidney Fgα gene expression (FC relative to control)” value is reported as “did not lead to any increase” and the “kidney Fgβ gene expression (FC relative to control)” value is reported as “did not lead to any increase”. Further, in data set [7] (setting [10]), the “kidney Fgγ gene expression (FC relative to control)” value is recorded as “did not lead to any increase” and the “urinary excretion of Fg” value is “did not lead to any increase”.
